Literature values as cited in paper PMC9747611 (Hypertension Research, 2022).

Tested on: aldosterone synthase
Details: cited from earlier work

N#Cc1ccc([C@H]2CCc3cncn32)c(F)c1 [LCI699]
increase in 11-deoxycorticosterone levels: up to 10 fold
